Test results reported in US11332452B2, “Pesticidal compositions and methods” (priority 2019, dated 2022).

Tests used:
Format in all cases: in vivo
[1] = tested on: Beet Armyworm (Spodoptera exigua, LAPHEG); assay: Insecticidal test for beet armyworm (BAW), 128-well diet tray assay; conditions: 168 h, 50 μg/cm^2 of test compound on artificial diet, second instar larvae, 25° C., five to seven days, average of eight wells, read-out: BAW % Control (or Mortality) rating
Protocol: Insecticidal Test for Beet Armyworm (Spodoptera exigua, LAPHEG) (“BAW”)
(§1) Bioassays on beet armyworm (BAW; Spodoptera exigua: Lepidoptera) are conducted using a 128-well diet tray assay. One to five second instar BAW larvae are placed in each well (3 mL) of the diet tray that had been previously filled with 1 mL of artificial diet to which 50 μg/cm^2 of the test compound (dissolved in 50 μL of 90:10 acetone-water mixture) had been applied (to each of eight wells) and then allowed to dry. Trays are covered with a clear self-adhesive cover, vented to allow gas exchange, and held at 25° C., 14:10 light-dark for five to seven days. Percent mortality is recorded for the larvae in each well; activity in the eight wells is then averaged.

[2] = tested on: Cabbage Looper (Trichloplusia Ni, TRIPNI); assay: Insecticidal test for cabbage looper (CL), 128-well diet tray assay; conditions: Trichoplusia ni, 168 h, read-out: CL % Control (or Mortality) rating
Protocol: Insecticidal Test for Cabbage Looper (Trichloplusia Ni, TRIPNI) (“CL”)
as §1, with “cabbage looper (CL; Trichloplusia ni:” for “beet armyworm (BAW; Spodoptera exigua:”, “CL” for “BAW”

[3] = tested on: Yellow Fever Mosquito (Aedes aegypti, AEDSAE); assay: Insecticidal test for yellow fever mosquito (YFM), 96-well plate larval assay; conditions: from 4000 ppm DMSO master solution, diluted; about 1 day-old larvae; room temperature; scored after 3 days
Protocol: Insecticidal Test for Yellow Fever Mosquito (Aedes aegypti, AEDSAE) (“YFM”)
Master plates containing 400 μg of a molecule dissolved in 100 μL of dimethyl sulfoxide (DMSO) (equivalent to a 4000 ppm solution) are used. A master plate of assembled molecules contains 15 μL per well. To this plate, 135 μL of a 90:10 water/acetone mixture is added to each well. A robot (Biomek® NXP Laboratory Automation Workstation) is programmed to dispense 15 μL aspirations from the master plate into an empty 96-well shallow plate (“daughter” plate). There are 6 reps (“daughter” plates) created per master. The created “daughter” plates are then immediately infested with YFM larvae.
The day before plates are to be treated, mosquito eggs are placed in Millipore water containing liver powder to begin hatching (4 g. into 400 mL). After the “daughter” plates are created using the robot, they are infested with 220 μL of the liver powder/larval mosquito mixture (about 1 day-old larvae). After plates are infested with mosquito larvae, a non-evaporative lid is used to cover the plate to reduce drying. Plates are held at room temperature for 3 days prior to grading. After 3 days, each well is observed and scored based on mortality.

SMILES	mortality at 50 µg/cm2 [1]	mortality at 50 µg/cm2 [2]	YFM % Control (or Mortality) rating [3]
O=C(/N=C1\SCC(=O)N1c1cc(Cl)ccc1OCC(F)(F)F)Nc1ccc(NNC(=O)c2ccc(OC(F)(F)F)cc2)cc1 [Compound A6, (Z)-1-(3-(5-Chloro-2-(2,2,2-trifluoroethoxy)phenyl)-4-oxothiazolidin-2-ylidene)-3-(4-(2-(4-(trifluoromethoxy)benzoyl)hydrazinyl)phenyl)urea]	0%	0%	D (No activity noticed in this bioassay)
Cc1ccc(C(C)C)c(N2C(=O)CS/C2=N\C(=O)NCCc2ccc(NC(=O)Oc3ccc(OC(F)(F)F)cc3)cc2)c1 [Compound A53, 4-(trifluoromethoxy)phenyl (Z)-(4-(2-(3-(3-(2-isopropyl-5-methylphenyl)-4-oxothiazolidin-2-ylidene)ureido)ethyl)phenyl)carbamate]	50 to 100%	50 to 100%	A (80-100)
CC(Cc1ccc(NC(=O)Nc2ccc(OC(F)(F)F)cc2)cc1)NC(=O)/N=C1\SCC(=O)N1c1ccccc1C(C)C (stereo not drawn) [Compound A34, (Z)-1-(4-(2-(3-(3-(2-Isopropylphenyl)-4-oxothiazolidin-2-ylidene)ureido)propyl)phenyl)-3-(4-(trifluoromethoxy)phenyl)urea]	50 to 100%	50 to 100%	A (80-100)
Cc1ccc(OCC(F)(F)F)c(N2C(=O)CS/C2=N\C(=O)Nc2ccc(NNC(=O)c3ccc(OC(F)(F)F)cc3)cc2)c1 [Compound A5, (Z)-1-(3-(5-Methyl-2-(2,2,2-trifluoroethoxy)phenyl)-4-oxothiazolidin-2-ylidene)-3-(4-(2-(4-(trifluoromethoxy)benzoyl)hydrazinyl)phenyl)urea]	0 to 50%	0 to 50%	B (More than 0-Less than 80)
Cc1ccc(C(C)C)c(N2C(=O)CS/C2=N\C(=O)NCCc2ccc(NC(=O)c3ccc(OC(F)(F)F)cc3)cc2)c1 [Compound A49, (Z)—N-(4-(2-(3-(3-(2-isopropyl-5-methylphenyl)-4-oxothiazolidin-2-ylidene)ureido)ethyl)phenyl)-4-(trifluoromethoxy)benzamide]	50 to 100%	0%	A (80-100)
Cc1ccc(C(C)C)c(N2C(=O)CS/C2=N\C(=O)Nc2ccc(CCNC(=O)c3ccc(OC(F)(F)F)cc3)cc2)c1 [Compound A50, (Z)—N-(4-(3-(3-(2-isopropyl-5-methylphenyl)-4-oxothiazolidin-2-ylidene)ureido)phenethyl)-4-(trifluoromethoxy)benzamide]	50 to 100%	50 to 100%	A (80-100)
COc1ccc(N2C(=O)CS/C2=N\C(=O)NCCc2ccc(NC(=O)Nc3ccc(OC(F)(F)F)cc3)cc2)c(C)c1 [Compound A21, (Z)-1-(4-(2-(3-(3-(4-methoxy-2-methylphenyl)-4-oxothiazolidin-2-ylidene)ureido)ethyl)phenyl)-3-(4-(trifluoromethoxy)phenyl)urea]	50 to 100%	50 to 100%	A (80-100)
Cc1ccc(C(C)C)c(-n2ccs/c2=N\C(=O)NCCc2ccc(NC(=O)Nc3ccc(C(F)(F)F)cc3)cc2)c1 [Compound A14, (Z)-1-(4-(2-(3-(3-(2-Isopropyl-5-methylphenyl)thiazol-2(3H)-ylidene)ureido)ethyl)phenyl)-3-(4-(trifluoromethyl)phenyl)urea]	50 to 100%	50 to 100%	A (80-100)
Cc1cc(Cl)c(N2C(=O)CS/C2=N\C(=O)NC(C)Cc2ccc(NC(=O)Nc3ccc(OC(F)(F)F)cc3)cc2)cc1C (stereo not drawn) [Compound A41, (Z)-1-(4-(2-(3-(3-(2-Chloro-4,5-dimethylphenyl)-4-oxothiazolidin-2-ylidene)ureido)propyl)phenyl)-3-(4-(trifluoromethoxy)phenyl)urea]	50 to 100%	50 to 100%	B (More than 0-Less than 80)
Cc1ccc(C(C)C)c(N2C(=O)CS/C2=N\C(=O)NCCc2ccc(NC(=O)Nc3ccc(OC(F)(F)F)cc3)cc2)c1 [Compound A8, (Z)-1-(3-(2-isopropyl-5-methylphenyl)-4-oxothiazolidin-2-ylidene)-3-(4-(3-(4-(trifluoromethoxy)phenyl)ureido)phenethyl)urea]	50 to 100%	50 to 100%	A (80-100)
CCc1cccc(C)c1N1C(=O)CS/C1=N\C(=O)NCCc1ccc(NC(=O)Nc2ccc(C(F)(F)F)cc2)cc1 [Compound A11, (Z)-1-(4-(2-(3-(3-(2-Ethyl-6-methylphenyl)-4-oxothiazolidin-2-ylidene)ureido)ethyl)phenyl)-3-(4-(trifluoromethyl)phenyl)urea]	50 to 100%	50 to 100%	A (80-100)
CCC(C)Oc1ccc(C)cc1N1C(=O)CS/C1=N\C(=O)NC(C)Cc1ccc(NC(=O)Nc2ccc(OC(F)(F)F)cc2)cc1 (stereo not drawn) [Compound A39, (Z)-1-(4-(2-(3-(3-(2-(sec-Butoxy)-5-methylphenyl)-4-oxothiazolidin-2-ylidene)ureido)propyl)phenyl)-3-(4-(trifluoromethoxy)phenyl)urea]	50 to 100%	50 to 100%	D (No activity noticed in this bioassay)
Cc1ccc(C(C)C)c(N2C(=O)CS/C2=N\C(=O)Nc2ccc(CCNC(=S)Nc3ccc(OC(F)(F)F)cc3)cc2)c1 [Compound A47, (Z)-1-(3-(2-isopropyl-5-methylphenyl)-4-oxothiazolidin-2-ylidene)-3-(4-(2-(3-(4-(trifluoromethoxy)phenyl)thioureido)ethyl)phenyl)urea]	50 to 100%	50 to 100%	A (80-100)
CCc1cccc(C)c1N1C(=O)CS/C1=N\C(=O)NCCc1ccc(NC(=O)Nc2ccc(OC(F)(F)F)cc2)cc1 [Compound A23, (Z)-1-(4-(2-(3-(3-(2-Ethyl-6-methylphenyl)-4-oxothiazolidin-2-ylidene)ureido)ethyl)phenyl)-3-(4-(trifluoromethoxy)phenyl)urea]	50 to 100%	50 to 100%	A (80-100)
Cc1ccc(OCC(F)(F)F)c(N2C(=O)CS/C2=N\C(=O)Nc2ccc(C(=O)NNc3ccc(OC(F)(F)F)cc3)cc2)c1 [Compound A3, (Z)-1-(3-(5-methyl-2-(2,2,2-trifluoroethoxy)phenyl)-4-oxothiazolidin-2-ylidene)-3-(4-(2-(4-(trifluoromethoxy)phenyl)hydrazine-1-carbonyl)phenyl)urea]	50 to 100%	50 to 100%	D (No activity noticed in this bioassay)
O=C(/N=C1\SCC(=O)N1c1cc(Cl)ccc1OCC(F)(F)F)NCCc1ccc(NC(=O)Nc2ccc(OC(F)(F)F)cc2)cc1 [Compound A17, (Z)-1-(4-(2-(3-(3-(5-Chloro-2-(2,2,2-trifluoroethoxy)phenyl)-4-oxothiazolidin-2-ylidene)ureido)ethyl)phenyl)-3-(4-(trifluoromethoxy)phenyl)urea]	50 to 100%	50 to 100%	A (80-100)
